Tested on: patients with mild to moderate Alzheimer's disease
Assay: clinical study, actigraphy (Actiwatch)
Assay type: in vivo, human
Details: for Interdaily variability, Ch from bl FUP / Intradaily stability, Ch from bl FUP / Mean awakening duration, Ch from bl FUP / Number of awakenings, Ch from bl FUP / Relative amplitude, Ch from bl FUP / Sleep efficiency, Ch from bl FUP / Sleep fragmentation, Ch from bl FUP / Total sleep time, Ch from bl FUP / Wake after sleep onset, Ch from bl FUP: follow-up
Excerpt: Actigraphy as used herein refers to an assessment of activity measured by an Actiwatch®, which was worn day and night by the patient during 4 periods of 15 days: before randomization, immediately after randomization, around week 12 and after treatment discontinuation around week 34 during the clinical study described in Example 2. The watch measures movements translating into assessment of sleep quality (number and duration of awakenings, wake after sleep onset or WASO, fragmentation index, sleep efficiency, total sleep period, total sleep time) and circadian rhythms ([…], relative amplitude).
A randomized, double-blind, parallel-group, placebo-controlled clinical trial was performed to study the effect on cognitive performance, safety, and tolerability of 2-(cyclohexylmethyl)-N-{2-[(2S)-1-methylpyrrolidin-2-yl]ethyl}-1,2,3,4-tetrahydroisoquinoline-7-sulfonamide difumarate monohydrate as adjunct treatment to donepezil.
More specifically, patients with mild to moderate Alzheimer's disease on stable donepezil therapy were randomized to receive doses of 0.5 mg, 2 mg, or 5 mg/day of 2-(cyclohexylmethyl)-N-{2-[(2S)-1-methylpyrrolidin-2-yl]ethyl}-1,2,3,4-tetrahydroisoquinoline-7-sulfonamide difumarate monohydrate or placebo for 24 weeks, with a 10 week follow-up period.
Patients were randomized to receive 0.5 mg, 2 mg, or 5 mg of 2-(cyclohexylmethyl)-N-{2-[(2S)-1-methylpyrrolidin-2-yl]ethyl}-1,2,3,4-tetrahydroisoquinoline-7-sulfonamide difumarate monohydrate (measured in base form), or matching placebo once a day, with donepezil (5 mg or 10 mg in the form the patient took prior to enrollment), for 24 weeks, with or without food.

CN1CCC[C@H]1CCNS(=O)(=O)c1ccc2c(c1)CN(CC1CCCCC1)CC2 [API, 2-(cyclohexylmethyl)-N-{2-[(2S)-1-methylpyrrolidin-2-yl]ethyl}-1,2,3,4-tetrahydroisoquinoline-7-sulfonamide difumarate monohydrate]
Interdaily variability, Ch from bl W2 (0.5 mg/day with donepezil): 0.01
Interdaily variability, Ch from bl W12 (0.5 mg/day with donepezil): 0.04
Intradaily stability, Ch from bl W2 (0.5 mg/day with donepezil): −0.03
Intradaily stability, Ch from bl W12 (0.5 mg/day with donepezil): −0.06
Mean awakening duration, Ch from bl W2 (0.5 mg/day with donepezil): 0.08 min
Mean awakening duration, Ch from bl W12 (0.5 mg/day with donepezil): 0.22 min
Mean awakening duration, significance (unlabelled line under Ch from bl W12) (0.5 mg/day with donepezil): 0.0109
Number of awakenings, Ch from bl W2 (0.5 mg/day with donepezil): −0.37
Number of awakenings, Ch from bl W12 (0.5 mg/day with donepezil): −0.55
Relative amplitude, Ch from bl W2 (0.5 mg/day with donepezil): 0.00
Relative amplitude, Ch from bl W12 (0.5 mg/day with donepezil): 0.02
Sleep efficiency, Ch from bl W2 (0.5 mg/day with donepezil): −0.05%
Sleep efficiency, Ch from bl W12 (0.5 mg/day with donepezil): −0.53%
Sleep efficiency, significance (unlabelled line under Ch from bl W12) (0.5 mg/day with donepezil): 0.0121
Sleep fragmentation, Ch from bl W2 (0.5 mg/day with donepezil): 0.91
Sleep fragmentation, Ch from bl W12 (0.5 mg/day with donepezil): 0.29
Total sleep time, Ch from bl W2 (0.5 mg/day with donepezil): −0.03 h.min
Total sleep time, Ch from bl W12 (0.5 mg/day with donepezil): 0.05 h.min
Wake after sleep onset, Ch from bl W2 (0.5 mg/day with donepezil): 0.02 h.min
Wake after sleep onset, Ch from bl W12 (0.5 mg/day with donepezil): 0.03 h.min
Interdaily variability, Ch from bl FUP (0.5 mg/day with donepezil): −0.02
Intradaily stability, Ch from bl FUP (0.5 mg/day with donepezil): 0.06
Mean awakening duration, Ch from bl FUP (0.5 mg/day with donepezil): 0.01 min
Number of awakenings, Ch from bl FUP (0.5 mg/day with donepezil): 1.34
Relative amplitude, Ch from bl FUP (0.5 mg/day with donepezil): −0.01
Sleep efficiency, Ch from bl FUP (0.5 mg/day with donepezil): −0.69%
Sleep fragmentation, Ch from bl FUP (0.5 mg/day with donepezil): 0.98
Total sleep time, Ch from bl FUP (0.5 mg/day with donepezil): 0.24 h.min
Wake after sleep onset, Ch from bl FUP (0.5 mg/day with donepezil): 0.04 h.min
sleep quality assessed by wake after sleep onset (WASO) over placebo (2 mg and 5 mg groups, from week 12): dose-dependent worsening of sleep quality
Interdaily variability, Ch from bl W2 (2 mg/day with donepezil): −0.01
Interdaily variability, Ch from bl W12 (2 mg/day with donepezil): −0.03
Intradaily stability, Ch from bl W2 (2 mg/day with donepezil): 0.02
Intradaily stability, Ch from bl W12 (2 mg/day with donepezil): 0.01
Mean awakening duration, Ch from bl W2 (2 mg/day with donepezil): 0.14 min
Mean awakening duration, Ch from bl W12 (2 mg/day with donepezil): 0.40 min
Mean awakening duration, significance (unlabelled line under Ch from bl W12) (2 mg/day with donepezil): <.0001
Number of awakenings, Ch from bl W2 (2 mg/day with donepezil): 0.51
Number of awakenings, Ch from bl W12 (2 mg/day with donepezil): 1.26
Relative amplitude, Ch from bl W2 (2 mg/day with donepezil): −0.03
Relative amplitude, Ch from bl W12 (2 mg/day with donepezil): −0.06
Relative amplitude, significance (unlabelled line under Ch from bl W12) (2 mg/day with donepezil): <.0001
Sleep efficiency, Ch from bl W2 (2 mg/day with donepezil): −1.65%
Sleep efficiency, Ch from bl W12 (2 mg/day with donepezil): −2.58%
Sleep efficiency, significance (unlabelled line under Ch from bl W12) (2 mg/day with donepezil): <.0001
Sleep fragmentation, Ch from bl W2 (2 mg/day with donepezil): 2.82
Sleep fragmentation, Ch from bl W12 (2 mg/day with donepezil): 6.31
Sleep fragmentation, significance (unlabelled line under Ch from bl W12) (2 mg/day with donepezil): <.0001
Total sleep time, Ch from bl W2 (2 mg/day with donepezil): −0.1 h.min
Total sleep time, Ch from bl W12 (2 mg/day with donepezil): −0.2 h.min
Wake after sleep onset, Ch from bl W2 (2 mg/day with donepezil): 0.07 h.min
Wake after sleep onset, Ch from bl W12 (2 mg/day with donepezil): 0.18 h.min
Wake after sleep onset, significance (unlabelled line under Ch from bl W12) (2 mg/day with donepezil): <.0001
Interdaily variability, Ch from bl FUP (2 mg/day with donepezil): −0.01
Intradaily stability, Ch from bl FUP (2 mg/day with donepezil): 0.04
Mean awakening duration, Ch from bl FUP (2 mg/day with donepezil): 0.34 min
Number of awakenings, Ch from bl FUP (2 mg/day with donepezil): 1.27
Relative amplitude, Ch from bl FUP (2 mg/day with donepezil): −0.07
Sleep efficiency, Ch from bl FUP (2 mg/day with donepezil): −3.97%
Sleep fragmentation, Ch from bl FUP (2 mg/day with donepezil): 3.93
Total sleep time, Ch from bl FUP (2 mg/day with donepezil): −0.25 h.min
Wake after sleep onset, Ch from bl FUP (2 mg/day with donepezil): 0.13 h.min
Total sleep time, significance (unlabelled line under Ch from bl W12) (2 mg/day with donepezil, NS = non-significant): 0.06)
total sleep time (5 mg): No modification
total sleep time and WASO after treatment discontinuation (FUP) (5 mg group): improved
Interdaily variability, Ch from bl W2 (5 mg/day with donepezil): 0.00
Interdaily variability, Ch from bl W12 (5 mg/day with donepezil): −0.04
Intradaily stability, Ch from bl W2 (5 mg/day with donepezil): −0.05
Intradaily stability, Ch from bl W12 (5 mg/day with donepezil): 0.02
Mean awakening duration, Ch from bl W2 (5 mg/day with donepezil): 0.30 min
Mean awakening duration, Ch from bl W12 (5 mg/day with donepezil): 0.38 min
Mean awakening duration, significance (unlabelled line under Ch from bl W12) (5 mg/day with donepezil): <.0001
Number of awakenings, Ch from bl W2 (5 mg/day with donepezil): −0.52
Number of awakenings, Ch from bl W12 (5 mg/day with donepezil): 0.84
Relative amplitude, Ch from bl W2 (5 mg/day with donepezil): −0.02
Relative amplitude, Ch from bl W12 (5 mg/day with donepezil): −0.08
Relative amplitude, significance (unlabelled line under Ch from bl W12) (5 mg/day with donepezil): 0.0015
Sleep efficiency, Ch from bl W2 (5 mg/day with donepezil): −1.82%
Sleep efficiency, Ch from bl W12 (5 mg/day with donepezil): −2.26%
Sleep efficiency, significance (unlabelled line under Ch from bl W12) (5 mg/day with donepezil): <.0001
Sleep fragmentation, Ch from bl W2 (5 mg/day with donepezil): 3.57
Sleep fragmentation, Ch from bl W12 (5 mg/day with donepezil): 5.83
Sleep fragmentation, significance (unlabelled line under Ch from bl W12) (5 mg/day with donepezil): 0.0005
Total sleep time, Ch from bl W2 (5 mg/day with donepezil): −0.11 h.min
Total sleep time, Ch from bl W12 (5 mg/day with donepezil): −0.05 h.min
Wake after sleep onset, Ch from bl W2 (5 mg/day with donepezil): 0.08 h.min
Wake after sleep onset, Ch from bl W12 (5 mg/day with donepezil): 0.17 h.min
Wake after sleep onset, significance (unlabelled line under Ch from bl W12) (5 mg/day with donepezil): <.0001
Interdaily variability, Ch from bl FUP (5 mg/day with donepezil): 0.00
Intradaily stability, Ch from bl FUP (5 mg/day with donepezil): −0.03
Mean awakening duration, Ch from bl FUP (5 mg/day with donepezil): 0.12 min
Number of awakenings, Ch from bl FUP (5 mg/day with donepezil): 1.20
Relative amplitude, Ch from bl FUP (5 mg/day with donepezil): −0.02
Sleep efficiency, Ch from bl FUP (5 mg/day with donepezil): −0.89%
Sleep fragmentation, Ch from bl FUP (5 mg/day with donepezil): 3.08
Total sleep time, Ch from bl FUP (5 mg/day with donepezil): 0.1 h.min
Wake after sleep onset, Ch from bl FUP (5 mg/day with donepezil): 0.09 h.min
